Data on 3 molecules can be found in paper PMC10135378, “Synthesis of Novel N-Heterocyclic Carbene-Ruthenium (II) Complexes, “Precious” Tools with Antibacterial, Anticancer and Antioxidant Properties” (Antibiotics, 2023).

The subject of one test is MDA-MB-231 cells. Nature of the test: MTT assay, anticancer activity on MDA-MB-231 cells. Format: cell-based, human. Particulars: MTT, 72 h exposure, 0.1-100 µM. The method, then:
(§1) The anticancer activity of all the synthesized Ru-NHC complexes (RANHC I-VI) was studied in two human breast cancer cell lines, namely the estrogen receptor positive (ER+) MCF-7 cells and the triple negative MDA-MB-231 cells (ER-, PR-, and HER-2/Neu not overexpressed), and neuroblastoma cells, i.e., SH-SY5Y. First, the cells were exposed for 72 h at different concentrations of the studied complexes (from 0.1 to 100 µM) and then their viability was checked by MTT assay.
(§2) The adopted cells (breast cancer MCF-7 and MDA-MB-231 and human mammary epithelial MCF-10A cells) were purchased from American Type Culture Collection (ATCC, Manassas, VA, USA) and cultured as indicated. The mouse embryonic fibroblast BALB/3T3 and neuroblastoma SH-SY5Y were also obtained from American Type Culture Collection (ATCC, Manassas, VA, USA) and cultured in DMEM high glucose supplemented with 100 U mL^−1 penicillin/streptomycin and 10% bovine calf serum (BCS) or 10% fetal bovine serum (FBS), respectively.
(§3) MTT assay (Sigma Aldrich (St. Louis, MO, USA)) was used for the in vitro anticancer activity evaluation, as previously reported. The Ru-NHC complexes were employed at different concentrations (0.1–1–10–25–50–100 μM) for 72 h. The IC50 values were calculated from the percent (%) of control using GraphPad Prism 9 (GraphPad Software, La Jolla, CA, USA).
(Tetrazolium dyes change colour on reduction, which living cells bring about.)

Another test concerns MCF-10A cells. Put plainly: MTT assay, non-tumoral MCF-10A cells. In kind it is cell-based, human. Particulars: 72 h exposure.
Excerpt: (§4) Additionally, we investigated the selectivity of all the synthesized Ru-NHC complexes on the cancer cells by studying their capability to interfere with the growth of two non-tumoral cells, namely the MCF-10A and BALB/3T3 cells.
as §2, §3

In the next test the test system is MCF-7 cells. Put plainly: MTT assay, anticancer activity on MCF-7 cells. Format: cell-based, human. Conditions: 72 h exposure, 0.1-100 µM. The method, then:
as §1, §2, §3

The test system of another test is SH-SY5Y cells. Put plainly: MTT assay, anticancer activity on SH-SY5Y neuroblastoma cells. Format: cell-based. Conditions: 72 h exposure, 0.1-100 µM. The method, then:
as §1, §2, §3

Another test has as its system BALB/3T3 cells. Nature of the test: MTT assay, non-tumoral BALB/3T3 fibroblasts. Format: cell-based. Particulars: 72 h exposure, non-tumoral mouse embryonic fibroblasts.
Excerpt: as §4, §2, §3

Test [1] in a line: DPPH radical scavenging assay. Particulars: 30 min, room temperature, 517 nm. The method, then:
Generally, the DPPH radical is able to accept hydrogen radicals or an electron, turning into a stable molecule. The interaction with Ru-NHC complexes induces the reduction of DPPH radical intensity measured at 517 nm, due to the conversion of the purple DPPH radical into its corresponding yellow hydrazine form.
The radical scavenging properties of Ru-NHC complexes on the 1,1-diphenyl-2-picryl-hydrazil (DPPH) radical were evaluated as described by Fazio et al., with minor corrections. Then, 20 μL of each Ru complex, properly dissolved in DMSO, were mixed with methanol DPPH 0.1 mM (180 μL) in a 48-well plate obtaining […] different concentrations (10, 50, 100, 200 and 300 µg/mL). Next, 20 μL of DMSO in 180 μL of DPPH methanol solution was diluted as the control. The mixture was vigorously shaken and incubated (room temperature, 30 min, in the dark). The scavenging activity was measured at 517 nm, using a microplate reader. DPPH radical scavenging was expressed as inhibition percentages (%IDPPH) for the Ru complexes compared to the initial concentration of DPPH (control) according to the formula: %IDPPH=A0−A/A0×100 where A0 is the absorbance at 517 nm of the control reaction and A is the absorbance at 517 nm in the presence of samples.
The obtained IDPPH percentages allowed the IC50 values determination, using GraphPad Prism 9 software (GraphPad Inc., San Diego, CA, USA). Trolox was employed as a positive control.
In general terms: DPPH is a stable violet radical that fades when it is reduced.

Test [2] in a line: ABTS radical scavenging assay. Conditions: 5 min, room temperature, 730 nm. From the text: To further analyze the Ru-NHC complexes antiradical potential, we examined their capability to interfere with the ABTS radical cation, a well-known protonated radical with a characteristic maximal absorbance at 730 nm, which diminishes with the scavenging of the radical proton. The assay measures radical scavenging by the electron donation. The outcomes in terms of ABTS% scavenging activity are reported in Figure 7 and IC50 values of Ru-NHC complexes, together with the standard Trolox, on ABTS radical are summarized in Table 3 and Table S3.
The radical scavenging properties of the Ru-NHC complexes on a 2,2′-azino-bis(3-ethylbenzothiazoline-6-sulfonate) radical cation (ABTS^•+) were calculated as described by Fazio et al., with few adjustments. Briefly, 2 mM ABTS and 70 mM potassium persulfate water solutions were mixed and incubated to obtain ABTS^•+ radical stock solution (16 h, room temperature, in the dark). ABTS solution was diluted in ethanol to obtain an absorbance of 0.70 ± 0.02 at 730 nm, prior to use. Then, 2 μL of each Ru-NHC complex at different concentrations, properly dissolved in DMSO, were mixed with 198 μL of the ABTS^•+ solution in a 48-well plate obtaining the following concentrations: 0.1, 1, 10, 50, and 100 µg/mL. The solutions were vigorously shaken and incubated (5 min, room temperature, in the dark). The ABTS scavenging activity was determined at 730 nm, using a microplate reader. The control was prepared mixing 2 μL of DMSO with 198 μL of the ABTS^•+ solution. The ABTS radical scavenging was expressed as inhibition percentages (%IABTS) of each complex compared to the control, according to the formula: %IABTS=A0−A/A0×100 where A0 is the absorbance at 730 nm of the control reaction and A is the absorbance at 730 nm in the presence of samples.
IC50 values for the Ru complexes were calculated from the %IABTS using GraphPad Prism 9 software (GraphPad Inc., San Diego, CA, USA). Trolox was employed as the positive control.

Test [3] has as its system Enterococcus faecalis (ATCC 19433). Put plainly: MIC/MBC broth dilution, E. faecalis. Format: cell-based. Particulars: control for strain sensitivity. The procedure: (§5) One Gram-negative (Escherichia coli (ATCC® 25922TM)) and two Gram-positive bacterial strains (Enterococcus faecalis (ATCC® 19433TM) and Staphylococcus aureus (ATCC® 23235TM)] were used for MIC and MBC values determination, according to CLSI guidelines. MIC represents the lowest concentration of compound inhibiting the visible microbial growth and expressed as μg/mL; MBC is the lowest concentration able to kill the bacteria. Both determinations were performed by the broth dilution method. Bacteria were grown overnight in LB medium (2%), then diluted to a density of […] colony forming units (CFUs) per mL, plated in sterile 96-well microplates, obtaining about 10^5 cells/ well. Increasing concentrations of the Ru-NHC complexes (1, 10, 25, 50, 70, 100 µg/mL) were used. After incubation at 37 °C for 18 h (overnight), bacterial growth was checked at a wavelength of 600 nm using a Multiskan spectrophotometer (model Multiskan Ex Microplate; Thermo Scientific, Nyon, Switzerland) and MIC or MBC values were determined, comparing cell density with a positive control (bacterial cells grown in LB medium were added with only the vehicle, DMSO). Each experiment was carried out five times, in triplicate. Ampicillin (Sigma Aldrich A9393) was used as the control for strain sensitivity.
A general note: Dilution methods test growth across graded concentrations, often in twofold steps.

Test [4] deals with Staphylococcus aureus (ATCC 23235). Nature of the test: MIC/MBC broth dilution, S. aureus. Conditions: control for strain sensitivity. In kind it is cell-based. The procedure: as §5
For test [5], the system named is Escherichia coli (ATCC 25922). Put plainly: MIC/MBC broth dilution, E. coli. Format: cell-based. Particulars: control for strain sensitivity. The procedure:
as §5

Regarding `N.N.[Cl][Pt][Cl]` [Cisplatin, reference compound], the IC50 (usually the point on the concentration scale where inhibition reaches its midpoint) in the test on MDA-MB-231 cells stood at 32.1 ± 1 µM; with MCF-10A cells, 80.24 ± 0.8 µM; in the test on MCF-7 cells it was 26.2 ± 1.1 µM; in the test with SH-SY5Y cells, 18.8 ± 0.9 µM; with BALB/3T3 cells, 21.6 ± 1.2 µM.

As to `Cc1c(C)c2c(c(C)c1O)CCC(C)(C(=O)O)O2` (stereo not shown) [Trolox, reference compound], the IC50 worked out at 99.91 ± 0.9 µM in test [1] and 92.3 ± 0.9 µM in test [2].

With `CC1(C)S[C@@H]2[C@H](NC(=O)[C@H](N)c3ccccc3)C(=O)N2[C@H]1C(=O)O` [ampicillin, Ampicillin, reference compound], the “strain sensitivity to ampicillin, E. faecalis” value in [3] is “ampicillin-sensible”. Further, the “strain sensitivity to ampicillin, S. aureus” value in test [4] is recorded as “ampicillin-sensible”. Moreover, the “strain sensitivity to ampicillin, E. coli” value in test [5] was “ampicillin-sensible”.
